In US6316405A, “Cyclosporin a conjugates and uses therefor” (Wisconsin Alumni Research Foundation, priority 1999, dated 2001):
“Also recorded” adds a separate entry of the source. Peptide text beside a SMILES is read from it. * marks the point of attachment. X1 = CCC(C)(C)C(=O)C(=O)N1CCCC[C@H]1C(=O)O[C@H](CCc1ccccc1)c1cccc(OCC(=O)*)c1; NHTrityl = c1ccc(C(N*)(c2ccccc2)c2ccccc2)cc1; Acetyl(pyridin-2-yl) = O=C(Cc1ccccn1)*; Fmoc = O=C(OCC1c2ccccc2-c2ccccc21)*; ClZ = O=C(OCc1ccccc1Cl)*; Alloc = C=CCOC(=O)*

Tests used:
[1] = Solubility of Aβ-binding peptides in organic solvents; conditions: for solubility of the peptide (in words): running text, organic solvents
Protocol: After cleavage from the resin with TFA, the solubles of the crude peptides were determined (ca. 3-5 mg/0.5-1.0 ml) in various solvents (LiCl/DMF, DMF or NMP, and/or mixtures with DCM/MeOH/CH3 CN/dioxane).
^a conditions: 3-5 mg peptide/0.5-1.0 mL.
^b conditions tested; NMP, DMF, DMF/LiCl, THF, CH3 CN, DCM, MeOH,

[2] = Solubility of conjugates in organic solvents; conditions: running text
Aβ peptide = Aβ peptide (Homo sapiens, UniProt P05067); conditions: Tjernberg et al. 1996; cited from earlier work
Sequence of Aβ peptide (P05067 672-713 limits assumed): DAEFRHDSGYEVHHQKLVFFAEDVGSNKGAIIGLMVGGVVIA

cyclophilin (Cyp) = conditions: cited from earlier work
nerve regeneration = conditions: NGF must be present; Lyons et al. 1994, Steine et al. 1997; cited from earlier work
[3] = Table 11.3, 3-5 mg peptide/0.5-1.0 mL, all free lysines are TFA salts
[4] = Table 11.1, crude peptides for CsA analog coupling, ca. 3-5 mg/0.5-1.0 ml
[5] = Table 11.1, ca. 3-5 mg/0.5-1.0 ml

CC(C)C[C@H](NC(=O)[C@H](CCCCN)NC(=O)Cc1ccccn1)C(=O)N[C@H](C(=O)N[C@@H](Cc1ccccc1)C(=O)N[C@@H](Cc1ccccc1)C(N)=O)C(C)C [11.39, Pyridylacetate-KLVFF-NH2]
Solubility (solvent in which the peptide is soluble) [1, 3]: DMF | solubility of the peptide (in words) [1]: completely soluble in DMF as the double TFA salts

CC(C)C[C@H](NC(=O)[C@H](CCCCN)NC(=O)OCC1c2ccccc2-c2ccccc21)C(=O)N[C@H](C(=O)N[C@@H](Cc1ccccc1)C(=O)N[C@@H](Cc1ccccc1)C(N)=O)C(C)C [11.37, Fmoc-KLVFF-NH2]
Solubility (solvent in which the peptide is soluble) [1, 3]: DMF | solubility of the peptide (in words) [1]: completely soluble in DMF

CC(=O)N[C@@H](CCCCNC(=O)OCc1ccccc1Cl)C(=O)N[C@@H](CC(C)C)C(=O)N[C@H](C(=O)N[C@@H](Cc1ccccc1)C(=O)N[C@@H](Cc1ccccc1)C(=O)O)C(C)C [11.27, Ac-K(2Cl-Cbz)LVFF-OH]
Solubility (solvent in which the peptide is soluble) [1, 4]: DMF | solubility of the peptide (in words) [1]: soluble in DMF but requires a longer vortexing period | solubility of the peptide (in words) ([1]; listed as Ac-K(2Cl-Cbz)LVFF-OH): increased solubility in DMF

C=CCOC(=O)NCCCC[C@H](NC(=O)Cc1ccccn1)C(=O)N[C@@H](CC(C)C)C(=O)N[C@H](C(=O)N[C@@H](Cc1ccccc1)C(=O)N[C@@H](Cc1ccccc1)C(=O)N[C@@H](CCCCNC(=O)COc1cccc([C@@H](CCc2ccccc2)OC(=O)[C@@H]2CCCCN2C(=O)C(=O)C(C)(C)CC)c1)C(N)=O)C(C)C [10.9, Pyridyl acetyl-K(alloc)LVFFK-NH2 /FKBP inhibitor conjugate] ({Acetyl(pyridin-2-yl)}-K(Alloc)LVFFK(X1)-NH2)
solubility of the conjugate (in words) [2]: methanol soluble salt

Ac-QKLVFF-NH2
fibril formation (in words) (Aβ peptide): binds to and inhibits fibril formation

[MeLeu(3-OH)^1, MeAla^4,6 ]-CsA
binding to cyclophilin (in words) (cyclophilin (Cyp)): retains tight-binding to cyclophilin

CC(C)C[C@H](NC(=O)[C@H](CCCCNC(=O)OCc1ccccc1Cl)NC(=O)OCC1c2ccccc2-c2ccccc21)C(=O)N[C@H](C(=O)N[C@@H](Cc1ccccc1)C(=O)N[C@@H](Cc1ccccc1)C(=O)O)C(C)C [11.26, Fmoc-K(2Cl-Cbz)LVFF-OH]
Solubility (solvent in which the peptide is soluble) [1, 4]: DMF | solubility of the peptide (in words) [1]: completely soluble in DMF after a short period of vortexing

CC(C)C[C@H](NC(=O)[C@H](CCCCNC(=O)OCc1ccccc1Cl)NC(=O)[C@H](CCC(=O)NC(c1ccccc1)(c1ccccc1)c1ccccc1)NC(=O)OCC1c2ccccc2-c2ccccc21)C(=O)N[C@H](C(=O)N[C@@H](Cc1ccccc1)C(=O)N[C@@H](Cc1ccccc1)C(=O)O)C(C)C [11.25, Fmoc-Q(Trt)K(2Cl-Cbz)LVFF-OH] (Fmoc-E(NHTrityl)K(ClZ)LVFF-OH)
Solubility (solvent in which the peptide is soluble) [1, 4]: Hot NMP | solubility of the peptide (in words) [1]: soluble in only hot NMP and remained cloudy in LiCl/DMF

C=CC[C@@H]1/C=C(\C)C[C@H](C)C[C@H](OC)[C@H]2O[C@@](O)(C(=O)C(=O)N3CCCC[C@H]3C(=O)O[C@H](/C(C)=C/[C@@H]3CC[C@@H](O)[C@H](OC)C3)[C@H](C)[C@@H](O)CC1=O)[C@H](C)C[C@@H]2OC [FK506]
significant neurotrophic activity at concentrations as low as (nerve regeneration): 1 pM | binding to cyclophilin (in words) (cyclophilin (Cyp)): does not bind to Cyp

CC(=O)N[C@@H](CCC(=O)NC(c1ccccc1)(c1ccccc1)c1ccccc1)C(=O)N[C@@H](CCCCNC(=O)OCc1ccccc1Cl)C(=O)N[C@@H](CC(C)C)C(=O)N[C@H](C(=O)N[C@@H](Cc1ccccc1)C(=O)N[C@@H](Cc1ccccc1)C(=O)O)C(C)C [11.24, Ac-Q(Trt)K(2Cl-Cbz)LVFF-OH] (Ac-E(NHTrityl)K(ClZ)LVFF-OH)
Solubility grade in LiCl/DMF or LiCl/NMP [1, 5]: medium | solubility of the peptide (in words) [1]: no improvement in solubility is observed

C=CCOC(=O)NCCCC[C@H](NC(=O)Cc1ccccn1)C(=O)N[C@@H](CC(C)C)C(=O)N[C@H](C(=O)N[C@@H](Cc1ccccc1)C(=O)N[C@@H](Cc1ccccc1)C(=O)N[C@@H](CCCCN)C(N)=O)C(C)C [11.40, Pyiidylacetate-K(Alloc)LVFFK-NH2] ({Acetyl(pyridin-2-yl)}-K(Alloc)LVFFK-NH2)
Solubility (solvent in which the peptide is soluble) [1, 3]: DMF | solubility of the peptide (in words) [1]: completely soluble in DMF as the double TFA salts

CC(C)C[C@H](NC(=O)[C@H](CCCCNC(=O)OCc1ccccc1Cl)NC(=O)[C@H](CCC(=O)O)NC(=O)OCC1c2ccccc2-c2ccccc21)C(=O)N[C@H](C(=O)N[C@@H](Cc1ccccc1)C(=O)N[C@@H](Cc1ccccc1)C(N)=O)C(C)C [11.28, Fmoc-EK(2Cl-Cbz)LVFF-NH2] (Fmoc-EK(ClZ)LVFF-NH2)
Solubility (solvent in which the peptide is soluble) [1, 4]: DMF | solubility of the peptide (in words) [1]: soluble in neat DMF without added LiCl

CC(=O)N[C@@H](CCC(N)=O)C(=O)N[C@@H](CCCCNC(=O)OCc1ccccc1Cl)C(=O)N[C@@H](CC(C)C)C(=O)N[C@H](C(=O)N[C@@H](Cc1ccccc1)C(=O)N[C@@H](Cc1ccccc1)C(=O)O)C(C)C [11.23, Ac-QK(2Cl-Cbz)LVFF-OH]
Solubility grade in LiCl/DMF or LiCl/NMP [1, 5]: medium | solubility of the peptide (in words) [1]: poorly soluble in all solvents including LiCl/DMF; also recorded: sparingly soluble in LiCl/DMF

CC(=O)N[C@@H](CCC(=O)O)C(=O)N[C@@H](CCCCNC(=O)OCc1ccccc1Cl)C(=O)N[C@@H](CC(C)C)C(=O)N[C@H](C(=O)N[C@@H](Cc1ccccc1)C(=O)N[C@@H](Cc1ccccc1)C(N)=O)C(C)C [11.29, Ac-EK(2Cl-Cbz)LVFF-NH2] (Ac-EK(ClZ)LVFF-NH2)
Solubility (solvent in which the peptide is soluble) [1, 4]: LiCl/DMF | solubility of the peptide (in words) [1]: completely soluble only in LiCl/DMF | solubility of the peptide (in words) ([1]; listed as Ac-EK(2Cl-Cbz)LVFF-NH2): increased solubility in DMF

C=CCOC(=O)NCCCC[C@H](NC(=O)[C@H](CCCCN)NC(=O)OCC1c2ccccc2-c2ccccc21)C(=O)N[C@@H](CC(C)C)C(=O)N[C@H](C(=O)N[C@@H](Cc1ccccc1)C(=O)N[C@@H](Cc1ccccc1)C(N)=O)C(C)C [11.35, Fmoc-KK(Alloc)LVFF-NH2] (Fmoc-KK(Alloc)LVFF-NH2)
Solubility grade in LiCl/DMF or LiCl/NMP [1, 3]: medium | solubility of the peptide (in words) [1]: insoluble in DMF/LiCl

C=CCOC(=O)NCCCC[C@H](NC(=O)OCC1c2ccccc2-c2ccccc21)C(=O)N[C@@H](CC(C)C)C(=O)N[C@H](C(=O)N[C@@H](Cc1ccccc1)C(=O)N[C@@H](Cc1ccccc1)C(=O)N[C@@H](CCCCNC(=O)COc1cccc([C@@H](CCc2ccccc2)OC(=O)[C@@H]2CCCCN2C(=O)C(=O)C(C)(C)CC)c1)C(N)=O)C(C)C [11.41] (Fmoc-K(Alloc)LVFFK(X1)-NH2)
solubility of the conjugate (in words) [2]: not completely soluble in DCM, DCM/MeOH, or MeOH

C=CCOC(=O)NCCCC[C@H](NC(=O)OCC1c2ccccc2-c2ccccc21)C(=O)N[C@@H](CC(C)C)C(=O)N[C@H](C(=O)N[C@@H](Cc1ccccc1)C(=O)N[C@@H](Cc1ccccc1)C(=O)N[C@@H](CCCCN)C(N)=O)C(C)C [11.36, Fmoc-K(Alloc)LVFFK-NH2] (Fmoc-K(Alloc)LVFFK-NH2)
Solubility (solvent in which the peptide is soluble) [1, 3]: LiCl/DMF | solubility of the peptide (in words) [1]: completely soluble in LiCl/DMF
